According to patent US4637999A, “Substituted cephalosporins as anti-inflammatory and antidegenerative agents” (Merck & Co., Inc., priority 1983, dated 1987):
Where two headings read alike, the source gives them in different places.

Target: T1, Human Polymorphonuclear Leukocyte Elastase (Homo sapiens, UniProt P08246)
T1 sequence (P08246 30-267): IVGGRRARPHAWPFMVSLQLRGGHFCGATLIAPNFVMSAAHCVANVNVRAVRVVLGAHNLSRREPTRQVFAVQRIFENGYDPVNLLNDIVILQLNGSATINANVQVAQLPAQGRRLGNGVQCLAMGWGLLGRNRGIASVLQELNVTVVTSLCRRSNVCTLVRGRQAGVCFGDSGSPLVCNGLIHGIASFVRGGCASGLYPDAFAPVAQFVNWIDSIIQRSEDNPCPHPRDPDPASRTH
Experiment: biochemical

[1] = 50% inhibition of enzyme activity 2 minutes after zero time, crude PMN extract, 0.2 mM Boc-AAPAN, pH 7.5, 410 mμ, read-out: ED50 (the source's name) (converted)

| Compound | IC50 [1] | IC50 |
| --- | --- | --- |
| COC(=O)CCCOC(=O)C1=C(COC(C)=O)CSC2C(OC)C(=O)N12 (centres unmarked) [R1=OCH3, B=O(CH2)3 COOCH3] | 1.29 µM |  |
| COC(=O)c1ccc(COC(=O)C2=C(COC(C)=O)CSC3C(OC)C(=O)N23)cc1 (centres unmarked) [R1=OCH3, B=OCH2 .phi.(p-COOCH3)] | 0.689 µM |  |
| COC1C(=O)N2C(C(=O)OCC=C(C)C)=C(COC(C)=O)CSC12 (centres unmarked) [R1=OCH3, B=OCH2 CHC(CH3)2] | 2.81 µM |  |
| CCOC(=O)COC(=O)C1=C(COC(C)=O)CSC2C(OC)C(=O)N12 (stereo not drawn) [R1=OCH3, B=OCH2 COOC2 H5, Ethoxycarbonylmethyl 3-acetyloxymethyl-7α-methoxy-8-oxo-5-thia-1-azabicyclo[4.2.0]oct-2-ene-2-carboxylate] | 1.07 µM |  |
| COC(=O)C1=C(COC(C)=O)CSC2C(OC)C(=O)N12 (centres unmarked) [R1=OCH3, B=OCH3] | 8.3 µM |  |
| CO[C@H]1C(=O)N2C(C(=O)OC(C)(C)C)=C(COC(C)=O)CS[C@H]12 [R1=OCH3, B=OtBu, t-Butyl 3-acetyloxymethyl-7α-methoxy-8-oxo-5-thia-1-azabicyclo(4.2.0)oct-2-ene-2-carboxylate] | 10.2 µM |  |
| CC(=O)OCC1=C(C(=O)OCc2ccccc2)N2C(=O)C(OC=O)C2SC1 (centres unmarked) [R1=OCHO, B=OCH2 .phi.] | 5.11 µM |  |
| COC(=O)C1=C(COC(C)=O)CSC2C(OC=O)C(=O)N12 (centres unmarked) [R1=OCHO, B=OCH3] | 9.51 µM |  |
| COC(=O)C1=C(COC(C)=O)CSC2C(OC(=O)c3ccccc3)C(=O)N12 (centres unmarked) [R1=OCO.phi., B=OCH3] | 12.8 µM |  |
| COC(=O)C1=C(COC(C)=O)CSC2C(OC(=O)Cc3ccccc3)C(=O)N12 (centres unmarked) [R1=OCOCH2 .phi., B=OCH3] |  | 9.87 µM |
| CC(=O)OCC1=C(C(=O)OC(C)(C)C)N2C(=O)C(OC(=O)Cc3ccccc3)C2SC1 (centres unmarked) [R1=OCOCH2 .phi., B=OtBu] |  | 6.7 µM |
